The supplement of paper PMC10307832

Columns and labels:
Test in all cases: relative viability (nuclei count vs DMSO), 5 days (fraction); higher = more cells survive
TPCA-1 = compound: C1=CC(=CC=C1C2=CC(=C(S2)NC(=O)N)C(=O)N)F [TPCA-1]
Summary of the method: (§1)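 Vehicle-anchored 1536-well plates of lung cancer cell lines, held overnight at 37 °C, were pinned with five library-drug doses (not always all listed) spaced by √10. No medium change followed over the next 5 days, after which the cells were fixed, permeabilised and Hoechst-stained together and imaged at 4×. Nuclei were counted with MetaXpress, and viability is treated-well nuclei over vehicle-well nuclei, taken as a median across plates. Plates passed with control CV below 25% and at least one doubling.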

[1] = compound: C1/C(=C\C2=CC=CS2)/C(=O)/C(=C/C3=CC=CS3)/C1
Summary of the method: as §1

Lestaurtinib = compound: C[C@]12O[C@H](C[C@]1(O)CO)n1c3ccccc3c3c4c(c5c6ccccc6n2c5c31)CNC4=O [Lestaurtinib]
Summary of the method: as §1

[2] = compound: C1/C(=C\C2=CC=CS2)/C(=O)/C(=C/C3=CC=CS3)/C1 + COc1cc2c(Oc3ccc(NC(=O)C4(C(=O)Nc5ccc(F)cc5)CC4)cc3F)ccnc2cc1OCCCN1CCOCC1 [Foretinib] (partner 0.25 µM)
Summary of the method: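 A single step with final 0.05% Triton X-100, 1% formaldehyde and 1 ug/ml Hoechst fixed the cells and stained nuclei 5 days after treatment. Lung cancer cell lines in 1536-well plates had been treated by pin tool the day after seeding with one drug alone or a fixed anchor-drug dose plus five library-drug doses (not always all listed) in √10 steps, and nuclei were counted on 4× images. Relative viability is the ratio of nuclei in treated wells to nuclei in vehicle wells, taken as the median of duplicate plates.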

Cell Line	relative viability (TPCA-1; 0.04 µM)	relative viability (TPCA-1; 0.1265 µM)	relative viability (TPCA-1; 0.4 µM)	relative viability (TPCA-1; 1.265 µM)	relative viability (TPCA-1; 4 µM)	relative viability ([1]; 0.2 µM)	relative viability ([1]; 0.6325 µM)	relative viability ([1]; 2 µM)	relative viability ([1]; 6.325 µM)	relative viability ([1]; 20 µM)	relative viability (Lestaurtinib; 0.005 µM)	relative viability (Lestaurtinib; 0.01581 µM)	relative viability (Lestaurtinib; 0.05 µM)	relative viability (Lestaurtinib; 0.1581 µM)	relative viability (Lestaurtinib; 0.5 µM)	relative viability ([2]; first compound 0.2 µM)	relative viability ([2]; first compound 0.6325 µM)	relative viability ([2]; first compound 2 µM)	relative viability ([2]; first compound 6.325 µM)	relative viability ([2]; first compound 20 µM)
SW 900	0.663	0.719	0.922	0.775	0.654	0.9	0.947	0.87	0.874	0.864	0.916	1.08	0.966	1.06	0.885	0.823	0.817	0.804	0.9	1.16
NCI-H1944	1.15	0.88	1.07	0.998	0.715	1.04	0.922	0.977	0.858	0.917	0.888	0.972	0.968	0.655	0.396	0.918	0.828	0.89	0.844	0.859
NCI-H727	0.939	0.86	0.961	0.78	0.734	1.09	0.887	1.02	0.709	0.954	1.07	1.21	1.03	0.787	0.476	0.907	0.802	1.1	0.815	0.96
NCI-H1650	1.03	0.851	1.06	0.955	0.852	0.874	0.908	1.01	0.867	0.875	0.976	1.09	0.961	1.19	0.415	1.15	1.16	1.41	1.12	1.18
HCC-827	1.12	0.988	1.05	0.961	0.813	1.05	1.04	1.05	0.956	1.04	1.01	1.07	1.03	0.892	0.664	1.04	0.939	1.02	0.96	1
HCC-366	1.03	0.995	1.01	1.01	0.152	1.02	1.05	1.1	0.827	1.04	1.06	1.01	1.02	1.01	0.829	0.919	0.915	0.99	0.849	0.904
HARA	1.05	0.996	1.06	1.14	0.476	1.11	0.94	1.03	0.853	0.945	1.09	1.22	1.08	0.619	0.499	0.875	0.992	0.973	0.832	0.842
NCI-H322M	1.11	0.885	1.03	1.13	0.704	0.928	0.924	1.01	0.804	0.912	0.904	0.924	0.497	0.663	0.624	1	1.06	1.1	0.855	0.874
LXF-289	1	0.934	0.954	0.953	0.69	1.03	1.03	1.02	0.902	0.991	0.963	1.02	0.93	0.901	0.315	0.982	0.959	0.973	0.994	0.98
PC-3 [JPC-3]	1.04	1	1.04	1.04	0.951	1.04	1.06	1.03	0.949	1.08	1.07	1.08	0.957	0.77	0.624	1.11	1.05	1.01	0.865	1.11
CAL-12T	0.989	0.925	1.05	0.86	0.468	1.04	1.07	0.978	0.859	0.994	0.962	1.17	0.968	0.788	0.61	1.34	1.02	1.09	0.981	1.03
COR-L 105	1	0.9	0.99	0.806	0.615	0.989	0.895	0.956	0.71	0.836	0.897	0.978	0.808	0.572	0.313	1.49	1.02	1.31	–	1.03
NCI-H2347	1.13	0.961	1.01	0.873	0.929	1.1	1.03	1.02	0.969	1.03	0.979	1.1	0.9	0.72	0.654	0.703	1.1	1.08	0.729	1.03
NCI-H2126	0.997	0.918	1.01	0.89	0.809	1.03	1.01	1.07	0.896	0.979	1.02	1.1	0.891	0.842	0.729	1.38	0.985	1.3	1.08	1.08
NCI-H838	1.04	0.863	0.967	0.755	0.739	0.97	0.981	1.04	0.79	0.904	1	0.986	0.811	0.58	0.193	0.998	1.1	1.04	0.812	0.968
A549	1.05	0.956	0.955	0.871	0.782	0.987	0.983	1.01	0.772	0.931	1.04	1	0.791	0.521	0.162	0.888	1.01	0.968	–	0.937
